Source: PubChem BioAssay (NCI)
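Assay format: 96-well plates, 48-hour exposure. GI50 = concentration required for 50% inhibition of growth. The concentration for full growth arrest is given as TGI.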

Key:
Assay in all cases: NCI anticancer screen, dose series, 48 h
[1] = tested on: IGROV1 ovarian
[2] = tested on: NCI/ADR-RES ovarian
[3] = tested on: OVCAR-5 ovarian
[4] = tested on: T-47D breast
[5] = tested on: SR leukemia
[6] = tested on: MALME-3M melanoma
[7] = tested on: NCI-H522 lung
[8] = tested on: CAKI-1 renal
[9] = tested on: SF-539 CNS
[10] = tested on: MDA-MB-231 breast
[11] = tested on: LOX IMVI melanoma
[12] = tested on: TK-10 renal
[13] = tested on: RPMI-8226 leukemia
[14] = tested on: HCT-116 colon
[15] = tested on: SNB-19 CNS
[16] = tested on: MCF7 breast
[17] = tested on: U251 CNS
[18] = tested on: OVCAR-4 ovarian
[19] = tested on: COLO 205 colon
[20] = tested on: A498 renal
[21] = tested on: SK-MEL-2 melanoma
[22] = tested on: KM12 colon
[23] = tested on: SN12C renal
[24] = tested on: A549 NSCLC
[25] = tested on: PC-3 prostate
[26] = tested on: HT29 colon
[27] = tested on: SNB-75 CNS
[28] = tested on: UO-31 renal
[29] = tested on: ACHN renal
[30] = tested on: RXF 393 renal
[31] = tested on: SW-620 colon
[32] = tested on: NCI-H460 lung
[33] = tested on: HOP-92 NSCLC
[34] = tested on: CCRF-CEM leukemia
[35] = tested on: NCI-H226 lung
[36] = tested on: 786-0 renal
[37] = tested on: BT-549 breast
[38] = tested on: OVCAR-8 ovarian
[39] = tested on: SK-MEL-28 melanoma
[40] = tested on: HL-60(TB) leukemia
[41] = tested on: NCI-H23 lung
[42] = tested on: SF-268 CNS
[43] = tested on: UACC-257 melanoma
[44] = tested on: HCT-15 colon
[45] = tested on: HOP-62 NSCLC
[46] = tested on: SK-MEL-5 melanoma
[47] = tested on: HCC-2998 colon
[48] = tested on: SF-295 CNS
[49] = tested on: HS 578T breast
[50] = tested on: EKVX NSCLC
[51] = tested on: UACC-62 melanoma
[52] = tested on: MOLT-4 leukemia
[53] = tested on: DU-145 prostate
[54] = tested on: M14 melanoma
[55] = tested on: MDA-MB-435
[56] = tested on: SK-OV-3 ovarian

In the case of CCCCCCCCNC(=O)c1ccc(Cn2c(CCCC)nc3c(N)nc4ccccc4c32)cc1, the GI50 [1] is reported as 1600 nM, the TGI [1] is reported as 4490 nM and the GI50 [2] is reported as 1640 nM. For the same compound, the TGI [2] was 3420 nM, the GI50 [3] was 3350 nM and the TGI [3] was 13800 nM. It also gave a GI50 [4] of 1750 nM, a TGI [4] of 3950 nM and a GI50 [5] of 1580 nM. It also gave a TGI [5] of 5180 nM, a GI50 [6] of 1800 nM and a TGI [6] of 3510 nM. The GI50 [7] was 1890 nM, the TGI [7] was 4360 nM and the GI50 [8] was 1650 nM. The TGI [8] was 6240 nM, the GI50 [9] was 1680 nM and the TGI [9] was 3190 nM. It also gave a GI50 [10] of 1540 nM, a TGI [10] of 3550 nM and a GI50 [11] of 1420 nM. For the same compound, the TGI [11] was 2820 nM, the GI50 [12] was 2200 nM and the TGI [12] was 6220 nM. It also gave a GI50 [13] of 1370 nM, a TGI [13] of 3310 nM and a GI50 [14] of 1080 nM. For the same compound, the TGI [14] was 2470 nM, the GI50 [15] was 2800 nM and the TGI [15] was 10200 nM. It also gave a GI50 [16] of 1590 nM, a TGI [16] of 3570 nM and a GI50 [17] of 1830 nM. For the same compound, the TGI [17] was 3980 nM, the GI50 [18] was 1650 nM and the TGI [18] was 3490 nM. It also gave a GI50 [19] of 2040 nM, a TGI [19] of 4330 nM and a GI50 [20] of 2350 nM. For the same compound, the TGI [20] was 11300 nM, the GI50 [21] was 1940 nM and the TGI [21] was 3940 nM. It also gave a GI50 [22] of 2490 nM, a TGI [22] of 6520 nM and a GI50 [23] of 1920 nM. The TGI [23] was 4890 nM, the GI50 [24] was 3160 nM and the TGI [24] was 12300 nM. The GI50 [25] was 2550 nM, the TGI [25] was 11500 nM and the GI50 [26] was 2490 nM. The TGI [26] was 7160 nM, the GI50 [27] was 1720 nM and the TGI [27] was 4200 nM. The GI50 [28] was 459 nM, the TGI [28] was 3300 nM and the GI50 [29] was 1720 nM. It also gave a TGI [29] of 3660 nM, a GI50 [30] of 1000 nM and a TGI [30] of 2790 nM. The GI50 [31] was 1470 nM, the TGI [31] was 3200 nM and the GI50 [32] was 1940 nM. The TGI [32] was 3830 nM, the GI50 [33] was 26.9 nM and the TGI [33] was 838 nM. For the same compound, the GI50 [34] was 1730 nM, the TGI [34] was 4960 nM and the GI50 [35] was 14500 nM. The TGI [35] was 41400 nM, the GI50 [36] was 1710 nM and the TGI [36] was 3340 nM. It also gave a GI50 [37] of 1910 nM, a TGI [37] of 4140 nM and a GI50 [38] of 2040 nM. The TGI [38] was 5080 nM, the GI50 [39] was 1630 nM and the TGI [39] was 3050 nM. The GI50 [40] was 1830 nM, the TGI [40] was 4610 nM and the GI50 [41] was 2860 nM. It also gave a TGI [41] of 12500 nM, a GI50 [42] of 2010 nM and a TGI [42] of 4630 nM. For the same compound, the GI50 [43] was 1860 nM, the TGI [43] was 3670 nM and the GI50 [44] was 1700 nM. It also gave a TGI [44] of 3870 nM, a GI50 [45] of 2570 nM and a TGI [45] of 11100 nM. The GI50 [46] was 1570 nM, the TGI [46] was 2910 nM and the GI50 [47] was 2220 nM. The TGI [47] was 5390 nM, the GI50 [48] was 1590 nM and the TGI [48] was 3190 nM. The GI50 [49] was 1960 nM, the TGI [49] was 4330 nM and the GI50 [50] was 2850 nM. It also gave a TGI [50] of 17200 nM, a GI50 [51] of 1690 nM and a TGI [51] of 3290 nM. The GI50 [52] was 2440 nM, the TGI [52] was 8710 nM and the GI50 [53] was 3500 nM. For the same compound, the TGI [53] was 12100 nM, the GI50 [54] was 1740 nM and the TGI [54] was 3480 nM. The GI50 [55] was 1690 nM, the TGI [55] was 3110 nM and the GI50 [56] was 2640 nM. The TGI [56] was 7470 nM.
